From BindingDB's records for doi:10.1021/jm050499d (University of Zürich, 2005)

Test: Predicted binding affinity for beta secretase by linear interaction energy continuum electrostatics

Ki: 9.4 µM
SMILES: COCCCNC(=O)c1cc(NC(=O)Nc2cc(C(F)(F)F)cc(C(F)(F)F)c2)ccc1N(C)C [5-[3-(3,5-Bis-trifluoromethyl-phenyl)-ureido]-2-dimethylamino-N-(3-methoxy-propyl)-benzamide]
